The text below walks through data of ChEMBL document CHEMBL6109144, “Discovery of New Difluorocyclobutyl Derivatives as Effective Glucagon-Like Peptide-1 Receptor Agonists with Reduced hERG Inhibitory Activities” (J Med Chem, 2025).

The EC50 is the concentration at which the effect is half-maximal. Broadly, the Cmax is the highest concentration seen after dosing. As a reminder, the inhibition is the relative decrease from the control value, in per cent. For orientation: Tmax means the time at which the peak concentration occurs. Broadly, the CL/F is clearance divided by bioavailability, as obtained after extravascular dosing. By AUC(0-inf) is commonly meant the area under the concentration-time curve extrapolated to infinity. Read a low AUC(0-inf) as low exposure. The half-life is the time in which the quantity being followed falls by half. The low end stands for rapid decline, the high end for slow decline.

Calls of active or inactive are those of the source. The rule behind the calls is not given here.

In data set [1] the target is T1, Glucagon-like peptide 1 receptor (Homo sapiens, UniProt P43220). The data set can be described thus: Binding affinity to GLP-1R (unknown origin) at 500 nM measured at 30 to 120 mins by HTRF analysis relative to control. Particulars: time 30-120 min.
T1 sequence (P43220 whole entry): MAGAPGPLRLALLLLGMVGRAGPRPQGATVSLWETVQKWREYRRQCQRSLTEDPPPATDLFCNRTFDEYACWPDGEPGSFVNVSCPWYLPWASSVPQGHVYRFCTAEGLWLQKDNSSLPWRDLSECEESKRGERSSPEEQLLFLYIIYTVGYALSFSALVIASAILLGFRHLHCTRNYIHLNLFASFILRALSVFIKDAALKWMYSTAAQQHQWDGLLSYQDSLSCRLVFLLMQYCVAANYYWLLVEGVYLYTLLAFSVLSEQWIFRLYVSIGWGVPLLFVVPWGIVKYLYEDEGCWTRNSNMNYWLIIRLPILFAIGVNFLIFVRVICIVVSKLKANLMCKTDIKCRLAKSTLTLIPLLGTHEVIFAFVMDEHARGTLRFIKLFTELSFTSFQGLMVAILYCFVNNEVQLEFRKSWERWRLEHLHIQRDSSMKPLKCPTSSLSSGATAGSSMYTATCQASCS
The target of data set [2] is T1, Glucagon-like peptide 1 receptor. The data set can be described thus: Binding affinity to GLP-1R (unknown origin) at 5000 nM measured at 30 to 120 mins by HTRF analysis relative to control. As to conditions: filed as agonist, time 30-120 min. For orientation: Time-resolved FRET reads energy transfer from a long-lived donor to a nearby acceptor.
The target is the same in data set [3]. The data set can be described thus: Agonist activity at N-terminal hemagglutinin-tagged human GLP-1R expressed in CHO cells co-transfected with pcDNA3.0 assessed as increase in intracellular cAMP accumulation incubated for 30 mins by microplate reader analysis. It is filed as functional, cell-based.
A short description of data set [4]: Cmax in Sprague-Dawley rat at 5 mg/kg, po measured up to 24 hrs by LC-MS/MS analysis. In kind it is ADME, organism-based. As to conditions: in vivo.
The target in data set [5] is T2, hERG (KCNH2) (Homo sapiens, UniProt Q12809). The data set can be described thus: Inhibition of hERG at 10 uM at -80 mV holding potential by whole-cell patch clamp analysis relative to control. In kind it is toxicity. For orientation: The hERG channel carries a current that helps repolarise heart muscle cells.
T2 sequence (Q12809 whole entry): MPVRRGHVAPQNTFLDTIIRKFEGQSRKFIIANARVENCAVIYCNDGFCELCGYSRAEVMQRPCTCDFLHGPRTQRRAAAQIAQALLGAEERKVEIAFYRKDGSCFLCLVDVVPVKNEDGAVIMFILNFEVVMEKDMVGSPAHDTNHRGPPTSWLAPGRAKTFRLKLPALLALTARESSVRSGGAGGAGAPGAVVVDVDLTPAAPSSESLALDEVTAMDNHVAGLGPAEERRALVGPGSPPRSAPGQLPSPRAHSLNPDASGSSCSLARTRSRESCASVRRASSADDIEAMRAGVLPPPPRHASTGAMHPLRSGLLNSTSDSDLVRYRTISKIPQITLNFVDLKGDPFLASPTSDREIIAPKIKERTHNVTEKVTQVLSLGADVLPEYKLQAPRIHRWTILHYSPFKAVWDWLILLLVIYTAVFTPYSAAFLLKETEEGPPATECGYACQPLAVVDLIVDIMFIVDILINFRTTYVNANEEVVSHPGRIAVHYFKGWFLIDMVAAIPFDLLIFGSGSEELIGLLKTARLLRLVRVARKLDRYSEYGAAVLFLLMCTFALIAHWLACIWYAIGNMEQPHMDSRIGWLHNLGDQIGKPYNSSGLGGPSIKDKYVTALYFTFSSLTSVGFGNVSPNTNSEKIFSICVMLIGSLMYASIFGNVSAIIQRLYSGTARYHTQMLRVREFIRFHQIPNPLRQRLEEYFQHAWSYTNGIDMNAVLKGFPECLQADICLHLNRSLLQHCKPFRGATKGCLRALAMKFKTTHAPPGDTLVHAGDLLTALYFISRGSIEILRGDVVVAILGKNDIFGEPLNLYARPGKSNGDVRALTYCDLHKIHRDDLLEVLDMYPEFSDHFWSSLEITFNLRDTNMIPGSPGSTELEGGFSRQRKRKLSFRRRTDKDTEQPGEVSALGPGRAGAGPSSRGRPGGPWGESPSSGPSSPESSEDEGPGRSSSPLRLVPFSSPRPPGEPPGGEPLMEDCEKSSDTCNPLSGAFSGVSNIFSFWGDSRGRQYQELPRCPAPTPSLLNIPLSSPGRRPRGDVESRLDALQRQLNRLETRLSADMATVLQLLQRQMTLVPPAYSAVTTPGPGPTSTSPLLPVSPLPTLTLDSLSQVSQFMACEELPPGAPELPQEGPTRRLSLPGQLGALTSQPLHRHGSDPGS
Data set [6] in a line: in vivo. As to conditions: Sprague-Dawley, rat, po, 5 mg/kg.
The nature of data set [7]: Observed apparent oral clearance in Sprague-Dawley rat at 5 mg/kg, po measured up to 24 hrs by LC-MS/MS analysis. It is filed as ADME, organism-based. Particulars: in vivo.
Data set [8] in a line: Fraction of the dose absorbed in Sprague-Dawley rat at 5 mg/kg, po measured up to 24 hrs by LC-MS/MS analysis. Particulars: in vivo, read-out: Fabs. It is filed as ADME, organism-based.
A short description of data set [9]: AUC (0 to infinity) in Sprague-Dawley rat at 5 mg/kg, po measured up to 24 hrs by LC-MS/MS analysis. In kind it is ADME, organism-based. Particulars: in vivo.
Data set [10] is described as follows: Half life in Sprague-Dawley rat at 5 mg/kg, po measured up to 24 hrs by LC-MS/MS analysis. In kind it is ADME, organism-based. Particulars: in vivo.
For data set [11], the target named is T2, hERG (KCNH2). Kind of data set: Inhibition of hERG at 1 uM at -80 mV holding potential by whole-cell patch clamp analysis relative to control. It is filed as toxicity.
Data set [12] concerns Rattus norvegicus. Kind of data set: Antidiabetic activity in human GLP-1R knockin Sprague-Dawley rat model assessed as increase in rate of insulin secretion at 10 mg/kg, po pretreated with compound for 15 mins by IPGTT analysis. It is filed as functional, organism-based.
Data set [13] relates to Rattus norvegicus. Kind of data set: Antidiabetic activity in human GLP-1R knockin Sprague-Dawley rat model assessed as increase in rate of glucose disappearance at 10 mg/kg, po pretreated with compound for 15 mins by IPGTT analysis. It is filed as functional, organism-based.

For `O=C(O)c1ccc2nc(Cc3ccc(-c4cccc(OCc5ccc(C6CC(F)(F)C6)cc5F)n4)cc3)n(C[C@@H]3CCO3)c2c1`, the Activity in data set [1] is 29.5%; in data set [2] it was 73.5%. In addition, the EC50 in [3] was found to be 93 pM.

The molecule `COc1cc(C(=O)O)cc2c1nc(CN1CC=C(c3cccc(OCc4ccc(C5CC(F)(F)C5)cc4F)n3)CC1)n2C[C@@H]1CCO1` returned a maximum concentration (Cmax) in data set [4] of 31.5 ng/mL. The Activity in [1] (filed as agonist) was 69.4%; in [2], 92.3%. Further, the inhibition at 10 µM in data set [5] came out at 68.3%. In addition, the time of peak concentration (Tmax) at 24 h in [6] stood at 0.92 h. Further, the CL/F in data set [7] was 1040 mL/min/kg. Moreover, in data set [8], the Fa at 24 h came to 2.43%. In data set [9], this molecule displayed an area under the curve AUC(0-inf) of 84 ng·h/mL. Also, the EC50 in data set [3] amounted to 12 pM. This molecule had a half-life in data set [10] of 2.41 h.

As to `O=C(O)c1ccc2nc(CN3CCC(Oc4cccc(COc5ccc(Cl)c6ccoc56)n4)CC3)n(C[C@@H]3CCO3)c2n1`, the highest level in data set [4] (Cmax) was 116 ng/mL. Also, the inhibition at 10 µM in data set [5] is 9.8%. Also, the Tmax at 24 h in data set [6] turned out to be 0.5 h. Moreover, the CL/F in data set [7] was determined as 448 mL/min/kg. The Fa at 24 h in [8] came out at 13.4%. This molecule returned an AUC(0-inf) in data set [9] of 204 ng·h/mL. For the same molecule, in [3], the EC50 was 62 pM. The inhibition at 1 µM in data set [11] was 1%.

For `O=C(O)c1ccc2nc(CN3CC=C(c4cccc(OCc5ccc(C6CC(F)(F)C6)cc5F)n4)CC3)n(C[C@@H]3CCO3)c2c1`, the Cmax in data set [4] worked out at 22 ng/mL. Besides, the Activity in data set [1] (filed as agonist) was 57.9%; in data set [2], 88.9%. For the same molecule, the inhibition at 10 µM in data set [5] stood at 74%. The Tmax at 24 h in data set [6] amounted to 0.42 h. For the same molecule, the apparent clearance (CL/F) in [7] stood at 1230 mL/min/kg. In data set [8], the Fa at 24 h came to 3.63%. Further, in [9], the AUC(0-inf) came out at 67 ng·h/mL. Further, the EC50 in [3] came out at 59 pM. The half-life in [10] was 6.68 h. In [11], the inhibition at 1 µM was found to be 4.53%.

`O=C(O)c1ccc2nc(CN3CCC(Oc4cccc(Cc5ccc(Cl)c6c5OCC6)n4)CC3)n(C[C@@H]3CCO3)c2n1` returned a Cmax in data set [4] of 24.1 ng/mL. Moreover, the inhibition at 10 µM in [5] was determined as 5.1%. Moreover, the Tmax at 24 h in data set [6] is 0.67 h. Also, in data set [7], the CL/F came out at 458 mL/min/kg. In addition, the Fa at 24 h in [8] is 28.5%. Besides, the AUC(0-inf) in [9] was 182 ng·h/mL. Besides, the EC50 in data set [3] was determined as 47 pM. This molecule gave a half-life in data set [10] of 10.5 h. Further, in [11], the inhibition at 1 µM came to 0.7%.

For the molecule `O=C(O)c1ccc2nc(CN3CCC(Oc4cccc(COc5ccc6cnn(CC(F)F)c6c5)n4)CC3)n(C[C@@H]3CCO3)c2n1`, the concentration in data set [4] peaked (Cmax) at 133 ng/mL. Further, the inhibition at 10 µM in [5] came out at 2.69%. Moreover, in [6], the Tmax at 24 h came out at 0.36 h. Besides, in data set [7], the CL/F is 601 mL/min/kg. For the same molecule, the Fa at 24 h in data set [8] worked out at 10.8%. The AUC(0-inf) in data set [9] was 149 ng·h/mL. Moreover, in data set [3], the half-maximal effective concentration (EC50) is 85 pM. Moreover, the half-life in [10] was 4.27 h. For the same molecule, the inhibition at 1 µM in data set [11] is -0.55%.

As for `O=C(O)c1cc(F)c2nc(CN3CCC(c4cccc(OCc5ccc(C6CC(F)(F)C6)cc5F)n4)CC3)n(C[C@@H]3CCO3)c2c1`, the Cmax in [4] came to 65.6 ng/mL. For the same molecule, the inhibition at 10 µM in data set [5] stood at 101%. Moreover, the Tmax at 24 h in [6] stood at 2 h. Further, the CL/F in data set [7] was 375 mL/min/kg. In addition, the Fa at 24 h in data set [8] came to 6.7%. For the same molecule, the AUC(0-inf) in data set [9] stood at 229 ng·h/mL. Also, in data set [3], the EC50 was found to be 26 pM. Besides, the half-life in data set [10] is 2.3 h.

As for `O=C(O)c1ccc2nc(CN3CCC(Oc4cccc(COc5ccc6cnn(CC(F)F)c6c5F)n4)CC3)n(C[C@@H]3CCO3)c2n1`, the peak level in [4] (Cmax) was 38.3 ng/mL. Also, the inhibition at 10 µM in data set [5] amounted to 14.2%. Moreover, in data set [6], the Tmax at 24 h came out at 0.19 h. The CL/F in [7] came out at 2210 mL/min/kg. Besides, the Fa at 24 h in data set [8] worked out at 2.2%. In [9], the AUC(0-inf) came out at 31.4 ng·h/mL. In addition, the EC50 in data set [3] came out at 85 pM. The molecule also had a half-life in [10] of 2.95 h. For the same molecule, the inhibition at 1 µM in data set [11] is 5.1%.

For the molecule `O=C(O)c1cc(F)c2nc(CN3CC=C(c4cccc(OCc5ccc(C6CC(F)(F)C6)cc5F)n4)CC3)n(C[C@@H]3CCO3)c2c1`, the Activity in [1] (filed as agonist) came out at 45.4%; in [2], 82.2%. Further, the inhibition at 10 µM in data set [5] is 58.7%. The EC50 in [3] turned out to be 16 pM.

In the case of `N#Cc1ccc(COc2cccc(C3CCN(Cc4nc5ccc(C(=O)O)cc5n4C[C@@H]4CCO4)CC3)n2)c(F)c1` [DANUGLIPRON], the Cmax in data set [4] came out at 130 ng/mL. The figures for the Activity in data set [1] (filed as agonist) and in data set [2] were 44.9% and 81.9%, respectively. In addition, the inhibition at 10 µM in data set [5] worked out at 69.7%. The time to peak (Tmax) at 24 h in [6] is 1.33 h. Besides, the CL/F in data set [7] was 135 mL/min/kg. Moreover, in [8], the Fa at 24 h stood at 35.1%. Also, the result in data set [12] and in data set [13] was Active. The molecule also came in with an AUC(0-inf) in [9] of 655 ng·h/mL. In data set [10], the half-life was 3.61 h. Besides, in data set [11], the inhibition at 1 µM stood at 8.4%.

For the molecule `O=C(O)c1ccc2nc(CN3CCN(c4cccc(OCc5ccc(C6CC(F)(F)C6)cc5F)n4)CC3)n(C[C@@H]3CCO3)c2c1`, the values for the Activity in data set [1] and in [2] were 19.9% and 66.6%, respectively. In addition, in data set [3], the 50% effective concentration (EC50) was 81 pM.

With `O=C(O)c1ccc2nc(Cc3ccc(-c4cccc(OCc5ccc(C6CC(F)(F)C6)cc5F)n4)cc3F)n(C[C@@H]3CCO3)c2c1`, the peak level in [4] (Cmax) was 33.6 ng/mL. Also, the inhibition at 10 µM in data set [5] was 4.76%. The Tmax at 24 h in data set [6] amounted to 1.33 h. The CL/F in [7] was determined as 963 mL/min/kg. The Fa at 24 h in data set [8] is 2.86%. In [9], this molecule showed an AUC(0-inf) of 91 ng·h/mL. For the same molecule, the EC50 in [3] was 31 pM. Further, the half-life in [10] is 2.19 h. Moreover, in data set [11], the inhibition at 1 µM came to 0.58%.
